In brackets after ≈: the same amount, converted by molar mass.
Settings: buffer; pH 7.4; 200.0 µM

SMILES	solubility kinetic [µg/mL]
CCSc1nc(C)nc2sc(C)c(C)c12	< 0.3
CC1CCCCN1S(=O)(=O)c1ccc(C(=O)N2CCOCC2)cc1 (stereo unspecified)	> 52.9
COc1ccc(OC)c(N(CC(=O)N2CCOCC2)S(C)(=O)=O)c1	> 53.8
CC(=O)c1ccc(OCCOc2ccc([N+](=O)[O-])cc2)cc1	3.7 (≈ 12.3 µM)
Br.Cc1ccc(C2Cc3cc(O)c(O)cc3CN2)cc1 (stereo unspecified)	44.3
CC(=O)N1CCN(C(=O)CNC(=O)c2ccc(Br)o2)CC1	> 53.7
O=S(=O)(Cc1noc(-c2ccc(Cl)cc2)n1)Cc1ccco1	3 (≈ 8.86 µM)
O=[N+]([O-])c1ccc(C2NS(=O)(=O)N=C3CCCCCN32)cc1 (stereo unspecified)	> 48.7
Cc1cc(C)c2c(CC(=O)NN(C)C)coc2c1	> 36.9
CCN(Cc1nc(-c2ccc(OC)cc2)no1)C(=O)c1ccoc1C	41.1 (≈ 120 µM)
COCC(C)n1c(SCC(=O)NC2CCCCC2C)nc2ccccc2c1=O (stereo unspecified)	> 60.5
CC1C/C(=N\NC(=O)c2cccnc2)CC(C)(C)C1 (stereo unspecified)	> 38.9
Cc1ccc(CNc2cccnc2)cc1	> 29.7
Cc1cc(OCC(=O)N(C)Cc2ccccc2)ccc1Br	22.7 (≈ 65.2 µM)
O=C(NCCCN1CCOCC1)C(=O)NCc1ccccc1	> 45.8
Cc1cc(C(F)F)nn1CC(=O)NC1CCCC1	> 38.6
O=C(CSc1ncnc2ccccc12)NC1CCS(=O)(=O)C1 (stereo unspecified)	> 50.6
Nc1ncnc2c1ncn2[C@@H]1O[C@H](CO)[C@@H](O)[C@H]1O	> 40.1
Cc1cc(=O)[nH]c(SCC(=O)NCC2CCCO2)n1 (stereo unspecified)	> 42.5
O=C(OCC(=O)c1ccc[nH]1)c1ccc(Br)cc1	7.2 (≈ 23.4 µM)
CCCCNC(=O)C(=O)Nc1cc2c3c(c1)CCC(=O)N3CCC2	1.5 (≈ 4.55 µM)
COc1ccc(-n2c(C)c(C)c3c(NCCCO)ncnc32)cc1	> 49
COc1cc(CNc2ccc3[nH]c(=O)[nH]c3c2)ccc1OCC(=O)NC(C)(C)C	52.3 (≈ 131 µM)
O=C(COC(=O)Cn1cnc2ccccc21)Nc1ccccc1C(F)(F)F	> 56.6
Clc1ccc(CSC(Cn2ccnc2)c2ccc(Cl)cc2Cl)cc1.O=[N+]([O-])O (stereo unspecified)	48.7
Cc1ccc(S(=O)(=O)N2CCOCC2)cc1C(=O)N1CCN(c2ccc(C(F)(F)F)cn2)CC1	68.8 (≈ 138 µM)

Continued, values first:

solubility kinetic [µg/mL]	SMILES
2.4 (≈ 7.18 µM)	Cn1c(N)c(C(=O)Nc2c(Cl)cccc2Cl)sc1=S
32.4 (≈ 99.4 µM)	O=C(CCSCc1ccccc1Cl)NCc1cccs1
> 42.6	O=C(Nc1cccc2ccccc12)OCc1cncs1
48.9	Br.Cn1ccnc1SCC(=O)c1ccc(Cl)cc1
33.8 (≈ 142 µM)	Nc1ccccc1-c1nc2ccccc2[nH]c1=O
> 46.8	Cc1csc(C)[n+]1CC(=O)c1ccccc1.[Br-]
> 43.9	Cc1ccc(NC(=O)CNC(=O)c2ccco2)c(Cl)c1
8.1 (≈ 25.8 µM)	CC1CCCC(C)N1C(=O)COC(=O)c1c[nH]c2ccccc12 (stereo unspecified)
19.7 (≈ 60.5 µM)	COc1ccc(N2CC(NC(=O)Nc3ccccc3)CC2=O)cc1 (stereo unspecified)
> 43.7	Cc1c(N2C(=O)c3cccc4cccc(c34)C2=O)cnn1C
> 37	Cc1cccc(C)c1NC(=O)C(C)N1CCCC1 (stereo unspecified)
12.1 (≈ 37.3 µM)	Cc1ccccc1CN(C)CC(=O)Nc1c(C)cccc1C(C)C
18.9 (≈ 68.7 µM)	COc1cccc(COC(=O)Nc2ccccc2F)c1
33.7 (≈ 122 µM)	CC(NC(=O)c1cnc2ccccc2n1)c1ccccc1 (stereo unspecified)
0.5 (≈ 1.64 µM)	Cc1cc(C)c2cc(C(=O)N3CCc4ccccc4C3)[nH]c2c1
39.8 (≈ 115 µM)	COc1ccc(CCNC(=O)Nc2cccc([N+](=O)[O-])c2)cc1OC
0.4 (≈ 1.24 µM)	O=C(Nc1ccc(Cl)cc1Cl)c1ccc2ncsc2c1
> 46	CC(C)(C)c1ccc(C(=O)NC(=S)N2CCOCC2)cc1

solubility kinetic [µg/mL]	SMILES
7 (≈ 19.5 µM)	Cc1onc(-c2ccccc2)c1NC(=O)Nc1ccc(OC(F)F)cc1
6.3 (≈ 22.1 µM)	COc1ccc2c(c1OC)C(=O)N(c1ccc(O)cc1)C2
5.7 (≈ 22 µM)	Cc1ccc(C(C)NC(=O)c2cccs2)cc1C (stereo unspecified)
> 44.2	Cc1ccc(NC(=O)C2CC(=O)N(C(C)C)C2)cc1Cl (stereo unspecified)
> 54.9	C=CCN(CC(=O)Nc1cccnc1)S(=O)(=O)c1ccc(Cl)cc1
42.1 (≈ 138 µM)	COc1ccc(S(=O)(=O)Nc2noc3ccccc23)cc1
> 32.2	Cc1cccc(C)c1NC(=O)CN.Cl
5.7 (≈ 19.4 µM)	CSc1cccc(NC(=O)c2cccc3cccnc23)c1
> 42.2	O=C1ON=C(c2ccccc2)/C1=C/c1ccc(O)c(O)c1
> 35	Cc1ccc(C)c(N2CC(C(=O)O)CC2=O)c1 (stereo unspecified)
0.9 (≈ 2.71 µM)	COC(=O)c1c(NC(C)=O)sc(C(=O)Nc2ccccc2)c1C
31.7 (≈ 95.9 µM)	CCOC(=O)c1c(N)sc2c1CCN(CCc1ccccc1)C2
19.3 (≈ 64.1 µM)	CC(C)c1ccc(/C=C/c2[nH]c(=O)[nH]c(=O)c2[N+](=O)[O-])cc1
> 47.4	O=C(COC(=O)C1CCC1)NCc1ccc(Cl)cc1Cl
> 32.1	O=C1c2ccccc2C(=O)c2[nH]c(=O)[nH]c21
> 34.7	Nc1[nH]c(=O)nc(Nc2ccccc2)c1N=O
21.8 (≈ 99 µM)	Cc1ccccc1CC1SC(N)=NC1=O (stereo unspecified)

From PubChem BioAssay AID1996
